Measured values as given in the supplement of paper PMC10307832.

compound: C[C@]1(c2nc3c(C(N)=O)cccc3[nH]2)CCCN1 [Veliparib] + CC(=O)Nc1cccc(-n2c(=O)n(C3CC3)c(=O)c3c(Nc4ccc(I)cc4F)n(C)c(=O)c(C)c32)c1 [Trametinib] (partner 0.02 µM); assay: relative viability (nuclei count vs DMSO), 5 days (fraction); higher = more cells survive; settings: first compound 0.2 µM
Procedure, shortened: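 Nuclei were stained with Hoechst during a one-step fixation (final 0.05% Triton X-100, 1% formaldehyde, 1 ug/ml Hoechst) carried out 5 days after dosing, then counted on 4× images. The cells, lung cancer lines in 1536-well plates, had been dosed by pin tool the day after seeding with one drug alone or a fixed anchor-drug dose plus five library-drug doses (not always all listed) in √10 steps. Relative viability is the nuclei count in treated wells divided by that in vehicle wells, and each value is the median of duplicate plates.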

| Cell Line | relative viability |
| --- | --- |
| NCI-H520 | 0.721 |
| NCI-H358 | 0.195 |
| HCC-78 | 0.869 |
| EKVX | 0.329 |
| NCI-H1650 | 0.58 |
| EPLC-272H | 0.297 |
| LK-2 | 0.788 |
| PC-14 | 0.699 |
| LXF-289 | 0.668 |
| LC-2-ad | 0.914 |
| SW 900 | 0.938 |
| NCI-H522 | 0.805 |
| ChaGo-K-1 | 0.923 |
| NCI-H2170 | 1.01 |
| HCC-366 | 0.384 |

same assay, conditions: first compound 0.6325 µM

| Cell Line | relative viability |
| --- | --- |
| NCI-H2342 | 0.742 |
| LU99A | 0.537 |
| NCI-H1975 | 0.344 |
| H3255 | 0.624 |
| NCI-H2023 | 0.563 |
| NCI-H2405 | 0.578 |
| SK-LU-1 | 0.524 |
| NCI-H1734 | 0.631 |
| NCI-H1437 | 0.502 |
| NCI-H596 | 0.806 |
| HCC-15 | 0.357 |
| NCI-H460 | 0.109 |
| EMC-BAC-2 | 0.752 |
| NCI-H2009 | 0.302 |
| COR-L 105 | 0.432 |
| NCI-H1395 | 0.899 |

| Cell Line | relative viability |
| --- | --- |
| NCI-H520 | 0.646 |
| NCI-H1648 | 0.557 |
| NCI-H358 | 0.115 |
| HCC-78 | 0.617 |
| EKVX | 0.245 |
| NCI-H1650 | 0.497 |
| EPLC-272H | 0.268 |
| LK-2 | 0.763 |
| PC-14 | 0.686 |
| LXF-289 | 0.681 |
| LC-2-ad | 0.891 |
| SW 900 | 0.621 |
| NCI-H522 | 0.771 |
| ChaGo-K-1 | 0.857 |
| NCI-H2170 | 0.901 |
| HCC-366 | 0.327 |

same assay, conditions: first compound 2 µM

| Cell Line | relative viability |
| --- | --- |
| NCI-H2342 | 0.736 |
| LU99A | 0.571 |
| NCI-H1975 | 0.331 |
| H3255 | 0.632 |
| NCI-H2023 | 0.477 |
| NCI-H2405 | 0.745 |
| SK-LU-1 | 0.415 |
| NCI-H1734 | 0.72 |
| NCI-H1437 | 0.497 |
| NCI-H596 | 0.793 |
| HCC-15 | 0.4 |
| NCI-H460 | 0.202 |
| EMC-BAC-2 | 0.913 |
| NCI-H2009 | 0.33 |
| COR-L 105 | 0.468 |
| NCI-H1395 | 0.857 |

| Cell Line | relative viability |
| --- | --- |
| NCI-H520 | 0.705 |
| NCI-H1648 | 0.516 |
| NCI-H358 | 0.152 |
| HCC-78 | 0.669 |
| EKVX | 0.331 |
| NCI-H1650 | 0.508 |
| EPLC-272H | 0.319 |
| LK-2 | 0.766 |
| PC-14 | 0.834 |
| LXF-289 | 0.657 |
| LC-2-ad | 0.912 |
| SW 900 | 0.828 |
| NCI-H522 | 1.01 |
| ChaGo-K-1 | 0.905 |
| NCI-H2170 | 0.935 |
